Experimental data from patent US11219607B2, “Methods for suppressing cancer-related cachexia” (Ohio State Innovation Foundation, priority 2013, dated 2022).
“Also recorded” adds a separate entry of the source.

How the values were obtained:
[1] = system: Atrogin-1/MAFbx mRNA; experiment: qPCR of gastrocnemius muscle, C-26 model: Atrogin-1; type: in vivo, CD2F1 mice; details: C-26 tumor-bearing mice, 15 days after tumor cell injection, tumor-bearing/vehicle 29.4±3.5-fold, mean±S.D.
Procedure: (§1) Total RNA was isolated from homogenized gastrocnemius muscles (n=3/group) with TRIzol reagent (Life Technologies, Carlsbad, Calif.) and then purified using the RNAeasy Mini Kit (Qiagen, Valencia, Calif.). qRT-PCR was performed as described previously (42) by using the Bio-Rad CFX96 Real-Time PCR Detection System with iQ SYBR Green Supermix (Bio-Rad, Hercules, Calif.). RNA-seq library generation and data analysis were performed at The Ohio State University Comprehensive Cancer Center (OSUCCC) Nucleic Acid Shared Resource.
(§2) AR-42 was able to restore expression of Atrogin-1 (2.7±0.7-fold) and MuRF1 (1.1±0.2-fold) mRNA to basal levels […].

[2] = system: MuRF1 mRNA; experiment: qPCR of gastrocnemius muscle, C-26 model: MuRF1; type: in vivo, CD2F1 mice; details: C-26 tumor-bearing mice, 15 days after tumor cell injection, tumor-bearing/vehicle 25.8±3.9-fold, mean±S.D.
Procedure: as §1, §2

[3] = system: C-26 tumor-bearing mice; details: literature reference (33); cited from earlier work
[4] = system: C-26 tumor-bearing mice; experiment: Survival and body weight comparison of HDAC inhibitors, C-26 model; type: in vivo, CD2F1 mice; details: vorinostat 50 mg/kg p.o. once daily, romidepsin 0.6 mg/kg i.p. twice weekly, from day 6
Procedure: In one aspect, tumors were established by subcutaneous injection of C-26 cells (0.5×10^6 cells in 0.1 ml) into the right flank of male CD2F1 mice (approximately 6 weeks of age; Harlan Laboratories, Indianapolis, Ind.)(11). Tumor-bearing mice, as well as tumor-free mice serving as non-cachectic controls, were randomized into groups that were treated with either AR-42 (50 mg/kg, p.o. by gavage, every other day; Arno Therapeutics, Inc., Flemington, N.J.) or vehicle (0.5% methylcellulose (w/v) and 0.1% Tween-80 (v/v) in sterile water) starting 6 days after cell injection. To investigate the effect of delayed treatment, treatments with drug and/or vehicle were started 6, 10 and 12 days after cancer cell injection.
In another aspect, the effects of AR-42 were compared to other HDAC inhibitors. […]
The effects of AR-42 were compared to other HDAC inhibitors (i.e., vorinostat and romidepsin) in C-26 tumor-bearing mice. Starting on day 6 after tumor cell injection, mice were treated continuously with AR-42 (50 mg/kg every other day, orally), vorinostat [50 mg/kg once daily, orally (13)], romidepsin [0.6 mg/kg twice weekly, i.p. (14)], or vehicle, until weight loss, as determined by daily body weight measurements and subtraction of tumor mass, reached 20% of starting weight. […]

Row | Compound | Atrogin-1 mRNA level relative to tumor-free/vehicle control [1] [fold] | MuRF1 mRNA level relative to tumor-free/vehicle control [2] [fold] | reversal of muscle loss in C-26 tumor-bearing mice [3] | protective effect on body weight / attenuation of cachexia-induced weight loss [4]
1 | C/C=C1\NC(=O)[C@H]2CSSCC/C=C/[C@H](CC(=O)N[C@H](C(C)C)C(=O)N2)OC(=O)[C@H](C(C)C)NC1=O [romidepsin] | 19.6±3.1 | 14.6±3.3 |  | 
2 | CC(/C=C/C(=O)NO)=C\[C@@H](C)C(=O)c1ccc(N(C)C)cc1 [trichostatin-A] |  |  | could not reverse muscle loss | 
3 | CCCC(CCC)C(=O)O [valproic acid] |  |  | could not reverse muscle loss | 
4 | O=C(CCCCCCC(=O)Nc1ccccc1)NO [vorinostat] | 9.6±1.8 | 5.5±1.1 |  | limited or no appreciable protective effects; also recorded: ineffective
